Experimental data from patent US8754056B2, “Enhancing vessel lesion homing and repair potential of stem cells” (University of Florida Research Foundation, Inc., priority 2008, dated 2014).
[PMO-N] = phosphorodiamidate morpholino subunit (N: the base)

Key:
[1] = tested on: human peripheral blood-derived CD34+ cells; assay: NO production by DAF-FM fluorescence imaging; format: cell-based; conditions: for NO-release by SDF-1 in anti-TGFβ-PMO treated cells with inhibitor / NO generation in response to SDF-1 after PMO treatment: diabetic CD34+ cells; for NO generation in response to SDF-1 after PMO treatment / NO-release in response to SDF-1 after PMO pre-treatment: PMO 40 μg/mL; for NO-release in response to SDF-1 after PMO pre-treatment: n=3
Description: Human CD34^+ EPCs were incubated overnight with either control-PMO or anti-TGF-β-PMO at a concentration of 40 μg/mL. NO production was quantified in human peripheral blood-derived CD34^+ cells using NO-sensitive cell-permeant fluorescent dye DAF-FM. CD34^+ EPCs were loaded with 20 μM DAF-FM diacetate (Invitrogen) in 500 μl, of DPBS (MediaTech. Inc.) with glucose (1 mg/mL) and L-arginine (1 mM). […] Pharmacological inhibitors were added 30 min before the addition of DAF-FM. […] Cells were washed (4×) and 75 μL of cell suspension was placed in the coverslip-bottomed dish for fluorescence imaging. Fluorescent images were obtained using a computer-controlled monochromator excitation light source (TILL Polychrome II, TILL-Photonics, Martinsried, Germany) and a cooled CCD camera with exposure control (SensiCam, Till-photonics). During excitation at 488 nm with 50 ms of exposure time, emission at 510 nm was collected by the camera at 2×2 binning and images were acquired by Till-Vision software (Till Photonics, Martinsried, Germany). Images were corrected for background and maximum fluorescence intensity in individual cells was quantified in terms of arbitrary fluorescence units using Till-Vision software. Changes in fluorescence with different treatments were expressed as percent change with respect to cells that were used as time/vehicle control i.e. cells received no treatments but loaded with DAF-FM. Up to 75 numbers of cells were imaged per sample/donor and ‘n’ denotes number of donors used.

[2] = tested on: human CD34+ cells; assay: Survival in the absence of growth factors and later proliferation of CD34+ cells; format: cell-based
Description: Two discrete cord blood stem cell populations, lin^−CD34^+CD38^+ (FIG. 5A) or lin^−CD34^+CD38^− (FIG. 5B), in addition to lin^−CD34^+ cells from peripheral blood and bone marrow (FIG. 6A) were either treated with PMO containing medium or not. After 5 days, all cells received growth factors (Tpo, SCF, IL-3, IL-6) to detect live, growth factor responsive cells and their proliferative potential after 14 days was determined. By day 14, cells exposed to 20-300 μg/mL of anti-TGF-β-PMO typically formed macro colonies (>100,000 cells) after the addition of growth factors (FIG. 5).
Human cord blood and bone marrow CD34^+ EPCs were purchased from AllCells (Emeryville, Calif.) as positively selected lin^−, magnetic bead-purified frozen cell populations that were >95% CD34^+ cells by FACS analysis. Cells were thawed in a 37° C. water bath, diluted in excess IMDM 10% FBS, pelleted by centrifugation (300×g for 10 min), washed by centrifugation one additional time and, finally, counted using a hemocytometer. Viability, as determined by trypan blue dye exclusion, was routinely >95% after thaw and washes.
Further purification was carried out prior to survival and proliferation studies. Cells were adjusted to 5×10^5/mL in phosphate-buffered saline (PBS) containing 2% (v/v) fetal bovine serum (FBS) and incubated with single murine antibody controls and murine anti-CD34-PE, anti-CD45-PE-Cy5 and anti-CD38-APC. Just prior to cell sorting, propidium iodide (2 μg/mL) was added to detect non-viable cells. CD34^+, CD45^mid cells (HSCs are CD45^mid expressing and can be clearly separated from contaminating lymphocytes, which are CD45^high expressing) and CD38^+/− cells were directly sorted into 96-well round bottom plates (10±2 cells/well) containing IMDM, 10% horse serum, 10% FBS, 100 units/mL of penicillin, 10 μg/mL streptomycin, 20 mM 1-glutamine and 1 μM hydrocortisone±PMOs. At day 5, a hematopoietic growth factor cocktail (Hgf-cocktail) consisting of 20 ng/mL thrombopoietin, 50 ng/mL stem cell factor, 50 ng/mL interleukin-3 and 20 ng/mL interleukin-6, all purchased from PeproTech, N.J., was added to the wells. Cells were followed by daily direct light microscopy (×200) to assess cell proliferation. Cells that proliferated in response to growth factors were scored as cells that survived after the 5-day period in the absence of growth factors. […]
CD34^+ EPCs were isolated from cord blood, human bone marrow and peripheral blood as described above and sorted 10 cells per well in a 96 well plate in either the presence or absence of growth factors and in presence or absence of anti-TGFβ-PMO. […] This incubation period was previously determined by measuring the uptake of fluorescein isothyocyanate (FITC)-labelled PMOs in HSCs.

[3] = tested on: CD34+ EPCs; assay: Modified Boyden chamber migration to SDF-1 after PMO treatment; format: cell-based, human; conditions: SDF-1 100 nM
[4] = tested on: CXCR4; assay: Real-time PCR of CXCR4 mRNA in CD34+ EPCs; format: cell-based, human; conditions: normalized to β-actin
Description: (§1) Total mRNA from CD34 cells was isolated by using the Total RNA Mini Kit (Bio-Rad, Hercules, Calif.). The mRNA was transcribed by using an iScript cDNA Synthesis Kit (BioRad), and real-time PCR was performed using primers for CXCR4, CXCR7, or beta actin as per manufacturer's instructions (Ambion, Austin, Tex.). Real-time PCR was performed on 7500 Fast Real-Time PCR system for 40 cycles and all reactions were performed in triplicate.

[5] = tested on: CXCR7; assay: Real-time PCR of CXCR7 mRNA in CD34+ EPCs; format: cell-based, human; conditions: non-diabetic CD34+ cells, P<0.001
Description: as §1

[6] = tested on: murine HSCs; assay: CNV laser injury model, homing of adoptively transferred GFP+ murine HSCs; format: in vivo, mice; conditions: overnight pre-treatment of HSCs, vs control-PMO (p<0.05) or medium alone
[7] = tested on: human CD34+ EPCs; assay: Retinal ischemia-reperfusion injury model, incorporation of injected human CD34+ EPCs; format: in vivo, mice; conditions: for repair of acellular capillaries: diabetic CD34+ cells
Description: Mice (n=20) were kept under inhalation anaesthesia (isoflurane vapor) during induction of ischemia. The anterior chamber of the eye was cannulated with a 30-gauge needle attached to an infusion line of sterile saline, and the eye was subjected to 2 h of hydrostatic pressure (80-90 mmHg, measured by TonoPen; Medtronic Solan, Jacksonville, Fla.). […] The contralateral eye served as a control.
Seven days after the insult, at which time retinal capillary damage was appreciable,^14,15 the animals were injected intravitreally with isolated human CD34^+ EPCs pre-treated with either […] or control-PMO. After 48 h the animals were euthanized, the eyes were enucleated and the neural retinas were isolated by dissection. The retinas were permeabilized as described above, and reacted with rhodamine-conjugated R. communis agglutinin I. To assess the location of the injected human CD34^+ EPCs, retinas were further incubated with mouse monoclonal anti-human nuclear antigen (Chemicon) followed by secondary staining with FITC-conjugated goat-anti-mouse IgG antibodies (Chemicon). Confocal images of six random fields were taken and fluorescence intensity in each 100 μm^2 was analysed using ImageJ software. Appropriate non-immune antibodies, as well as incubation without primary antibody, were used to determine background and non-specific antibody binding.

[8] = tested on: Normal MPB CD34+CD45+; assay: Surface antigen expression after PMO treatment, normal cells; format: cell-based, human
[9] = tested on: Diabetic PB CD34+CD45+; assay: Surface antigen expression after PMO treatment, diabetic cells; format: cell-based, human
[10] = non-diabetic (normal) CD34+ EPCs

Molecule	CXCR4 mRNA expression ([4]; diabetic CD34+ cells)	CXCR4 mRNA expression [4, 10]	NO generation in response to SDF-1 after PMO treatment ([1]; n=4)	NO-release in response to SDF-1 after PMO pre-treatment ([1]; non-diabetic CD34+ cells)	repair of acellular capillaries [7]	CD14 % of cells [8]	CD38 % of cells [8]	CD105 % of cells [8]	CXCR4 % of cells [8]	VEGFR-2 % of cells [8]	CD14 % of cells [9]	CD38 % of cells [9]	CD105 % of cells [9]	CXCR4 % of cells [9]	VEGFR-2 % of cells [9]	further results
c1cc(CN2CCCNCCNCCCNCC2)ccc1CN1CCCNCCNCCCNCC1 [AMD3100]	–	–	–	–	–	–	–	–	–	–	–	–	–	–	–	NO-release by SDF-1 in anti-TGFβ-PMO treated cells with inhibitor ([1]; inhibitor 10 μM): 28±2%; NO release by SDF-1 after inhibitor pre-treatment ([1]; non-diabetic CD34+ cells, SDF-1 100 nM, inhibitor 10 μM): 3±2%
O=c1cc(N2CCOCC2)oc2c(-c3ccccc3)cccc12 [LY294002]	–	–	–	–	–	–	–	–	–	–	–	–	–	–	–	NO release by SDF-1 after inhibitor pre-treatment ([1]; non-diabetic CD34+ cells, SDF-1 100 nM, inhibitor 20 μM): 12±3%
SDF-1: the principal stem/progenitor cell homing factor, used as chemotaxis effector and NO release stimulus	–	–	–	–	–	–	–	–	–	–	–	–	–	–	–	increase in NO generation vs time-control ([1]; non-diabetic CD34+ cells, SDF-1 100 nM, n=4): 45±4%
anti-TGF-β-PMO: phosphorodiamidate morpholino antisense oligomer, 5′ GAG GGC GGC ATG III GAG GC 3′ (SEQ ID NO: 2), AVI BioPharma sequence ID#0-1-01067 (antisense GAGGGCGGCATGNNNGAGGC; all [PMO-N], the base at N not given here; further chemistry not fully specified)	significantly increased	down-regulation	69±7%	54±4%	robust reparative response	73.3 % of cells	82.3 % of cells	62.9 % of cells	85.3 % of cells	56.5 % of cells	62.4 % of cells	94.2 % of cells	51.7 % of cells	72.7 % of cells	62.4 % of cells	cell survival ([2]; 40 μg/mL, compared with other concentrations): greatest cell survival; proliferation vs control-PMO ([2]; BM-derived cells): increased proliferation; macro colony size by day 14 after addition of growth factors ([2]; cord blood cells, 20-300 μg/mL, growth factors added after 5 days): > 100,000 cells; proliferation vs control-PMO ([2]; peripheral blood CD34+ cells from diabetics and age- and sex-matched controls): enhanced proliferation; migration to SDF-1 vs control-PMO ([3]; diabetic CD34+ EPCs, P<0.05): enhanced migration; migration to SDF-1 vs control-PMO ([3]; non-diabetic CD34+ EPCs, P<0.01): enhanced migration; CXCR7 mRNA expression [5]: increased; numbers of GFP+ HSCs recruited to the laser injury site [6]: substantial increase; increase in incorporation of cells to injured retinal capillaries vs control-PMO ([7]; FITC immunoreactivity per 100 μm^2 area, P<0.001): 2.5 fold; homing to areas of ischemic injury ([7]; pre-treated EPCs injected intravitreally, vs control-PMO): profound homing
control-PMO: control morpholino oligomer, 5′ CGTTCTGATAGCTGTACCTC 3′ (SEQ ID NO: 1), AVI BioPharma sequence ID#0-1-0-555 (antisense CGTTCTGATAGCTGTACCTC; all phosphorodiamidate morpholino (PMO)) [reference compound]	not changed	increased	9.2%	60±5%	essentially no repair	69.3 % of cells	79.9 % of cells	71.0 % of cells	88.5 % of cells	62.9 % of cells	59.3 % of cells	92.2 % of cells	58.8 % of cells	74.1 % of cells	59.3 % of cells	–
pertussis toxin	–	–	–	–	–	–	–	–	–	–	–	–	–	–	–	NO-release by SDF-1 in anti-TGFβ-PMO treated cells with inhibitor ([1]; inhibitor 100 ng/mL): 16±3%; NO release by SDF-1 after inhibitor pre-treatment ([1]; non-diabetic CD34+ cells, SDF-1 100 nM, inhibitor 100 ng/ml): 20±9%
